Like-named read-outs stand apart in the source and are kept apart here.
Key:
[1] = molecular target: T1, TAS2R16 (Homo sapiens, UniProt Q9NYV7); assay: Fluo4-AM calcium imaging; format: cell-based
T1 sequence (Q9NYV7 1-291): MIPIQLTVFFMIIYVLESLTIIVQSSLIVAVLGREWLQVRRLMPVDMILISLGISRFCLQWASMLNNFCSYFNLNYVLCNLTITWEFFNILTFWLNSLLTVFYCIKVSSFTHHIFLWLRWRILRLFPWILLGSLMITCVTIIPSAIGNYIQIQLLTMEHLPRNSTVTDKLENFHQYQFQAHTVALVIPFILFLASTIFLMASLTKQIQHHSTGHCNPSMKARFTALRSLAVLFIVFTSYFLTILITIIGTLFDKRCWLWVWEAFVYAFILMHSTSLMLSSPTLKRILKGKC

[2] = molecular target: T1, TAS2R16; assay: Fluo4-AM calcium imaging; format: cell-based; conditions: agonist; C1 buffer with or without NaCl ([…] NMDG), pH […]

EC50 [1] [mM]	SMILES	EC50 [2]
1.28 ± 0.18	OCc1ccccc1O[C@@H]1O[C@H](CO)[C@@H](O)[C@H](O)[C@H]1O [D-salicin]	
	O=Cc1ccccc1O[C@@H]1O[C@H](CO)[C@@H](O)[C@H](O)[C@H]1O [Helicin]	signal saturation of TAS2R16 was achieved with phenyl-βD-glucopyranoside and helicin
	OC[C@H]1O[C@@H](Oc2ccccc2)[C@H](O)[C@@H](O)[C@@H]1O [phenyl-βD-glucopyranoside]	signal saturation of TAS2R16 was achieved with phenyl-βD-glucopyranoside and helicin

From paper PMC11082923 (Journal of Agricultural and Food Chemistry, 2024)
